Consider 1 compound from patent US10351559B2, “Maleate salts of a B-RAF kinase inhibitor, crystalline forms, methods of preparation, and uses therefore” (BeiGene, Ltd., priority 2015, dated 2019).

Data set [1] relates to drug metabolism enzymes. Put plainly: inhibition of drug metabolism enzymes. It counts as in vitro ADME. Particulars: except CYP2C8 and CYP2C19.
Data set [2] concerns HCC827 lung carcinoma (EGFR mutation) xenografts. As to the kind of experiment: xenograft efficacy study. In kind it is in vivo, BALB/C nude mice. Particulars: HCC827 xenografts in nude mice, oral. On the procedure:
(§1) Human cancer cells were inoculated subcutaneously in the right axilla region of BALB/C nude mice to generate tumor xenografts. On the day of implantation, the cell culture medium was replaced with fresh medium. Three hours later, the media was removed and the cells were collected and re-suspended in cold (4° C.) PBS prior to inoculation. The right axilla region of each mouse was cleaned with 70% ethanol prior to cell inoculation. Each animal was injected subcutaneously with desired cells in 200 μl of cell suspension in the right front flank via a 26-gauge needle. After implantation tumor volumes were measured twice weekly in two dimensions using a calliper. Tumor volume was calculated using the formula: V=0.5×(a×b^2) where a and b are the long and short diameters of the tumor, respectively.
(§2) For in vivo efficacy studies, when the average tumor size reaches 100˜200 mm^3, animals were assigned into desired number of groups with 6-10 mice per group using a stratified randomization procedure. The groups consisted of a control group (no drug treatment), and different dose levels of Crystalline Form A* of Compound 1 Sesqui-Maleate treatment groups (ranged from 1-20 mg/kg). All doses were based on free-base weight. Drugs were administered by oral gavage once (qd) or twice (bid) daily; dosing frequency depended on the individual case for tumor growth. Treatments were administered by oral gavage (p.o.) in a volume of 10 ml/kg body weight. Body weight was assessed immediately before dosing and the volume dosed was adjusted accordingly. Individual body weights and tumor volumes were determined twice weekly, with mice being monitored daily for clinical signs of toxicity for the duration of the study. Mice were euthanized using carbon dioxide once their tumor volume reached 2000 mm^3, the tumor was ulcerated, or body weight loss exceeded 20%. All group data was analyzed using the t test. If the p value was <0.05, it was considered to be statistically significant.
(§3) Tumor growth inhibition (TGI) was calculated using the following formula: […]

In data set [3] the test system is human A375 melanoma (B-RAF V600E mutation) xenografts. As to the kind of experiment: xenograft efficacy study. Particulars: A375 xenografts in nude mice, oral. It counts as in vivo, BALB/C nude mice. On the procedure:
as §1, §2, §3

The subject of data set [4] is Colo205 colorectal carcinoma (B-RAF V600E mutation) xenografts. Put plainly: xenograft efficacy study. In kind it is in vivo, BALB/C nude mice. Particulars: Colo205 xenografts in nude mice, oral. On the procedure:
as §1, §2, §3

Data set [5] has as its system WiDr colorectal carcinoma (B-RAF V600E mutation) xenografts. Put plainly: xenograft efficacy study. It counts as in vivo, BALB/C nude mice. Particulars: WiDr xenografts in nude mice, oral. On the procedure: as §1, §2, §3
Data set [6] concerns HT29 colorectal carcinoma (B-RAF V600E mutation) xenografts. Put plainly: xenograft efficacy study. It counts as in vivo, BALB/C nude mice. Particulars: HT29 xenografts in nude mice, oral. On the procedure:
as §1, §2, §3

Data set [7] relates to P450 enzymes in rat liver. Put plainly: P450 enzyme induction. It counts as in vitro ADME.
Data set [8] concerns the target T1, C-Raf (Y340D/Y341D) (Homo sapiens, UniProt P04049, Y340D/Y341D).
T1 construct: purchased Life Technologies PV3805
As to the kind of experiment: Raf kinase enzymatic assay (HTRF). It counts as biochemical. On the procedure:
(§4) Crystalline Form A* of Compound 1 Sesqui-Maleate was tested against recombinant B-Raf (V600E) (PV3849), C-Raf (Y340D/Y341D) (PV3805) and wild-type Braf (PV3848) from Life Technologies in kinase activity assays based on homogeneous time-resolved fluorescence (HTRF) methodology (Cisbio Bioassays). The assays were carried out in a reaction mixture containing RAF kinases, ATP at KM concentration, GST-tagged MEK1 (K97R) and Crystalline Form A* of Compound 1 Sesqui-Maleate or DMSO in buffer containing 25 mM Tris pH7.4, 10 mM MgCl2, 0.5 mM EGTA, 0.5 mM Na3VO4, 5 mM beta-glycerophosphate, 0.01% Triton X-100, 2.5 mM DTT and 0.1% BSA. The kinase was incubated with Crystalline Form A* of Compound 1 Sesqui-Maleate for 1 hr at room temperature (RT) and the reaction was initiated by the addition of ATP and GST-MEK1 (Full-length protein with K97R mutation, recombinant protein purified from bacterial expression system). After reaction at RT for 1 hr, stop/detection solution was added according to the manufacture's instruction (Cisbio Bioassays). The stop/detection solution contained Eu3+ cryptate-conjugated anti-phospho MEK1/2 (Ser217/221) rabbit polyclonal antibody and d2-conjugated anti-GST mouse monoclonal antibody in buffer containing 25 mM Tris pH7.4, 400 mM KF, 50 mM EDTA, 0.1% BSA and 0.01% Triton X-100. The TR-FRET signals (ratio of fluorescence emission at 665 nm over emission at 620 nm with excitation at 337 nm wavelength) were measured on a PHERAstar FS plate reader (BMG Labtech) after 1.5 hr incubation. Phosphorylation of MEK1 led to the binding of anti-phospho-MEK1/2 antibody to GST-MEK1 protein that place fluorescent donor (Eu3+ crypate) in close proximity to the accepter d2 on the anti-GST antibody, thus resulting in a high degree of fluorescence resonance energy transfer from the donor fluorophore (at 620 nm) to the acceptor fluorophore (at 665 nm). The IC50 for Crystalline Form A* of Compound 1 Sesqui-Maleate was derived from fitting the dose-response % inhibition data to the four-parameter logistic model by Graphpad Prism software.
In general terms: In TR-FRET formats the signal depends on donor and acceptor labels being close together.

For data set [9], the target named is wild-type Braf (Homo sapiens, UniProt P15056). As to the kind of experiment: Raf kinase enzymatic assay (HTRF). It counts as biochemical. On the procedure:
as §4

Data set [10] deals with BRAF V600E and KRAS cancers. Put plainly: Phase I clinical study. It counts as in vivo, human. Particulars: capsules, 5-50 mg single doses, 25 subjects.

Each structure is given as a SMILES string. pIC50: −log10 of the molar value. Counter-ions that a name gives are not always drawn.

Sequence of wild-type Braf (P15056 whole entry): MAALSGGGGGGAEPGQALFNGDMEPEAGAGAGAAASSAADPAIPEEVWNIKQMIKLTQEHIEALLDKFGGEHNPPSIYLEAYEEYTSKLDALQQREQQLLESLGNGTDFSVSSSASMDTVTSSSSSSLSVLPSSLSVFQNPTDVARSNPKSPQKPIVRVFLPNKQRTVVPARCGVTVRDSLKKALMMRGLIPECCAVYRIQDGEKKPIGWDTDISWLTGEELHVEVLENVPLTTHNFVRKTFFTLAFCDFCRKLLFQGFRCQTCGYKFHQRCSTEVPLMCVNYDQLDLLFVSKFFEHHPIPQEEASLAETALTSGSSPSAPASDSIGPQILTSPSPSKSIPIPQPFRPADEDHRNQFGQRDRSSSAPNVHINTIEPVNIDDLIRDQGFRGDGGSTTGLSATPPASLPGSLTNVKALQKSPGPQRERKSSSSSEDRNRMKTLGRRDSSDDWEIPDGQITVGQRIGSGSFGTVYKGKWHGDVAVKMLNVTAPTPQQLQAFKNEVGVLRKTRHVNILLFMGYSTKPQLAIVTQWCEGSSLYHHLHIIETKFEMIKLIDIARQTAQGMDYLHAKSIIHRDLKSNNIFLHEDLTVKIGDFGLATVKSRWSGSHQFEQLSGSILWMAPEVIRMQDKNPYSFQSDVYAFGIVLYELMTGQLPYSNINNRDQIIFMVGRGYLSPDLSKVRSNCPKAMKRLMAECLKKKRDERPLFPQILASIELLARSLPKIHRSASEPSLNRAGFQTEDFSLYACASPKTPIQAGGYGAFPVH
T1 sequence (P04049 whole entry Y340D/Y341D): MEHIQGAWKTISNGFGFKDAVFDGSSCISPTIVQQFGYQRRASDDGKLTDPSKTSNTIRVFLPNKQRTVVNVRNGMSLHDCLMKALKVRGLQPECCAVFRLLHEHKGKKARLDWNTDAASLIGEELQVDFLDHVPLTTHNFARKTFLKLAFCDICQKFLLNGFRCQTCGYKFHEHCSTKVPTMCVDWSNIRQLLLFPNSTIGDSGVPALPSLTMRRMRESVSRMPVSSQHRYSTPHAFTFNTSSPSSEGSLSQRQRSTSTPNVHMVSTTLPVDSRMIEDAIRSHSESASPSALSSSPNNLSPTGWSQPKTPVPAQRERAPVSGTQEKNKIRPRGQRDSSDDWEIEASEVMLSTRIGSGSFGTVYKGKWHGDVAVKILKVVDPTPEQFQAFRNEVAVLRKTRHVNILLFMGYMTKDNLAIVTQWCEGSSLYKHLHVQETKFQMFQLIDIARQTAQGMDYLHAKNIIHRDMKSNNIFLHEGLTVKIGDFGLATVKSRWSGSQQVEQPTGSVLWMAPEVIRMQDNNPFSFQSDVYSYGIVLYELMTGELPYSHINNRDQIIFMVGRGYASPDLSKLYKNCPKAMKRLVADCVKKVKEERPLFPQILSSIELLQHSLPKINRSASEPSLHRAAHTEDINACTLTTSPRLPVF

By pIC50 is commonly meant the negative decadic logarithm of the IC50, by convention in mol/L. As to `O=C1CCc2c(Oc3ccc4c(c3)[C@@H]3[C@H](O4)[C@H]3c3nc4ccc(C(F)(F)F)cc4[nH]3)ccnc2N1` [5-(((1R,1aS,6bR)-1-(6-(trifluoromethyl)-1H-benzo[d]imidazol-2-yl)-1a,6b-dihydro-1H-cyclopropa[b]benzofuran-5-yl)oxy)-3,4-dihydro-1,8-naphthyridin-2(1H)-one sesqui-maleate salt], the “inhibitory activity on drug metabolism enzymes” value in data set [1] was “no inhibitory activity”. For the same compound, the antitumor activity entry in data set [2], in data set [3], in [4], in [5] and in [6] was “marked antitumor activity” each time. Besides, in data set [7], the “induction effect on P450 enzymes” value was “No significant induction effect”. The “enzyme inhibition” value in [8] (C-RAF) was “potent and reversible inhibitor”; in [9] (wild-type B-RAF), “potent and reversible inhibitor”. Moreover, the negative logarithm of the IC50 (pIC50) was 8.46 in data set [8] (CRAF Y340, 341D, ATP at KM) and 7.16 in [9] (WT-BRAF, ATP at KM). Further, the “clinical safety of single doses” value in [10] is “safe and well tolerated”.
